Data reported in US7776856B2, “Pharmaceutical compounds” (F. Hoffman-La Roche AG, priority 2004, dated 2010).

Tested on: Caco-2 cells
Experiment: Caco-2 permeability
Format: in vitro ADME
Details: Caco-2 bidirectional assay
Experimental: (iii) Caco-2 Permeability
Caco-2 cells were seeded onto Millipore Multiscreen plates at 1×10^5 cells/cm^2, and were cultured for 20 days. Assessment of compound permeability was subsequently conducted. The compounds were applied to the apical surface (A) of cell monolayers and compound permeation into the basolateral (B) compartment was measured. This was performed in the reverse direction (B-A) to investigate active transport. A permeability coefficient value, Papp, for each compound, a measure of the rate of permeation of the compound across the membrane, was calculated. Compounds were grouped into low Papp</=1.0×10^6 cm/s) or high Papp>/=1.0×10^6cm/s) absorption potential based on comparison with control compounds with established human absorption.
For assessment of a compound's ability to undergo active efflux, the ratio of basolateral (B) to apical (A) transport compared with A to B was determined. Values of B−A/A−B>/=1.0 indicated the occurrence of active cellular efflux. All of the compounds tested through the Caco-2 permeability screen had Papp values >/=[…].

B−A/A−B asymmetry index: less than 1.0
Structure (SMILES): CN1CCN(Cc2cc3nc(-c4cccc(O)c4)nc(N4CCOCC4)c3s2)CC1 [PI540]
